Test results: patent publication US20220372031A1, “NOVEL TRICYCLIC AROMATIC HETEROCYCLIC COMPOUND, PREPARATION METHOD THEREFOR, PHARMACEUTICAL COMPOSITION AND APPLICATION THEREOF” (SHANGHAI LONGWOOD BIOPHARMACEUTICALS CO., LTD., priority 2019, published 2022)

target: T1, PD-1/PD-L1 (Homo sapiens, UniProt Q9NZQ7); assay: PD-1/PD-L1 homogeneous time-resolved fluorescence (HTRF) binding assay; details: PD-1/PD-L1 HTRF binding, ~3 nM PD1, 10 nM PD-L1, 25° C., PBS pH 7.4
T1 construct: Recombinant human PD-L1 protein (19-238) with a His-tagged at the C-terminus; purchased AcroBiosystems PD1-H5229 (PD-L1); PD1-H5257 (PD-1)
T1 sequence (Q9NZQ7 19-238): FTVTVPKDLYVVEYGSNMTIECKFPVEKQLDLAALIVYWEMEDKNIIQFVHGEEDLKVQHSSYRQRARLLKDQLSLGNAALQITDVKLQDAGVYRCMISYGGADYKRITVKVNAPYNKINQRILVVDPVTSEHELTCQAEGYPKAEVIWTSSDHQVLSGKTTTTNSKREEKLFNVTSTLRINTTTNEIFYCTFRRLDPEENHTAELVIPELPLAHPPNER
Method: Assays were performed in standard black 384-well polystyrene plates and a final volume was 20 μL. The inhibitor was first serially diluted with DMSO and added to the wells of the plate, followed by the addition of other reaction components. The final concentration of DMSO in the assay was 1%. Assays were performed at 25° C. in PBS buffer (pH 7.4) containing 0.05% Tween-20 and 0.1% BSA. Recombinant human PD-L1 protein (19-238) with a His-tagged at the C-terminus was purchased from AcroBiosystems (PD1-H5229). Recombinant human PD-1 protein (25-167) with an Fc tag at the C-terminus was also purchased from AcroBiosystems (PD1-H5257). The PD-L1 and PD-1 proteins were diluted in assay buffer and then […] of the solution was extracted and added to the wells of the plate. Plates were centrifuged and proteins and inhibitors were preincubated for 40 minutes. After incubation, 0.1 μl of HTRF detection buffer containing europium […] labeled anti-human IgG (PerkinElmer-AD0212), Fc-specific and anti-His SureLight®-Allophycocyanin (APC, PerkinElmer-AD0059H) conjugated antibodies was added. After centrifugation, the plates were incubated at 25° C. for 60 minutes. Data was read in a PHERAstar FS plate reader (665 nm/620 nm ratio). Final concentrations in the assay were ˜3 nM PD1, 10 nM PD-L1, 1 nM europium anti-human IgG, and 20 nM anti-His-allophycocyanin. Activity data were fitted using GraphPad Prism 5_0 software to derive IC50 values for inhibitors.

IC50 [nM] | SMILES
≤ 10 | COc1nc(-c2cccc(-c3cccc(-c4cc5cc6c(c(C#N)c5o4)CC[C@H]6N4CC[C@@H](C(=O)O)C4)c3Cl)c2C)cnc1CNC[C@@H]1CCC(=O)N1 [Compound 271]
≤ 10 | Cc1c(Nc2nccc3cc(CNC[C@@H]4CCC(=O)N4)cnc23)cccc1-c1cccc(-c2cc3cc4c(c(C#N)c3o2)CC[C@H]4N2CC[C@@H](C(=O)O)C2)c1Cl [Compound 274]
> 100 | Cc1c(Nc2nccc3cc(CN4CC[C@@H](O)C4)cnc23)cccc1-c1cccc(-c2cc3c4c(cc([N+](=O)[O-])c3o2)C(N2CC(C(=O)O)C2)CCC4)c1C (stereo partly drawn) [Compound 280]
